Reference: US11304957B2, “Substituted quinazolines for inhibiting kinase activity” (NeuPharma, Inc., priority 2013, dated 2022)

Molecular target: BTK (Homo sapiens (Human), UniProt Q06187)
Assay: Z'-LYTE kinase inhibition assay, BTK
Type: biochemical
Conditions: read-out: % inhibition BTK; heading: % inhibition BTK; compound at 0.041 μM
Experimental: Inhibitory activities of compounds against BTK, EGFR and EGFR mutants (EGFR L858R, EGFR T790M, EGFR L858R/T790M), FGFR1, FGFR2, JAK2, JAK3 and KDR were measured by Invitrogen using Z′-LYTE® Method as briefly described in the following.
Test Compounds are screened in 1% DMSO (final) in the well. For 10 point titrations, 3-fold serial dilutions are conducted from the starting concentration. All ATP Solutions are diluted to a 4× working concentration in Kinase Buffer (50 mM HEPES pH 7.5, 0.01% BRIJ-35, 10 mM MgCl2, 1 mM EGTA). Peptide/Kinase Mixtures are diluted to a 2× working concentration in the appropriate Kinase Buffers as described below.
(v) Peptide/Kinase Mixtures for Measurement of BTK:
The 2×BTK/Tyr 01 mixture is prepared in 50 mM HEPES pH 7.5, 0.01% BRIJ-35, 10 mM MgCl2, 1 mM EGTA.
The mixture is then incubated for another 60-minute at room temperature for development reaction. Finally fluorescence is read by plate reader.
To determine IC50 of a compound against EGFR, EGFR mutant and other kinases, a series of concentrations of the compound were tested for the inhibition. […] The scale utilized in Table 4 is as follows: +++ less than 100 nM, ++ 100-500 nM and + greater than 500 nM.

Chain of BTK (Q06187 whole entry): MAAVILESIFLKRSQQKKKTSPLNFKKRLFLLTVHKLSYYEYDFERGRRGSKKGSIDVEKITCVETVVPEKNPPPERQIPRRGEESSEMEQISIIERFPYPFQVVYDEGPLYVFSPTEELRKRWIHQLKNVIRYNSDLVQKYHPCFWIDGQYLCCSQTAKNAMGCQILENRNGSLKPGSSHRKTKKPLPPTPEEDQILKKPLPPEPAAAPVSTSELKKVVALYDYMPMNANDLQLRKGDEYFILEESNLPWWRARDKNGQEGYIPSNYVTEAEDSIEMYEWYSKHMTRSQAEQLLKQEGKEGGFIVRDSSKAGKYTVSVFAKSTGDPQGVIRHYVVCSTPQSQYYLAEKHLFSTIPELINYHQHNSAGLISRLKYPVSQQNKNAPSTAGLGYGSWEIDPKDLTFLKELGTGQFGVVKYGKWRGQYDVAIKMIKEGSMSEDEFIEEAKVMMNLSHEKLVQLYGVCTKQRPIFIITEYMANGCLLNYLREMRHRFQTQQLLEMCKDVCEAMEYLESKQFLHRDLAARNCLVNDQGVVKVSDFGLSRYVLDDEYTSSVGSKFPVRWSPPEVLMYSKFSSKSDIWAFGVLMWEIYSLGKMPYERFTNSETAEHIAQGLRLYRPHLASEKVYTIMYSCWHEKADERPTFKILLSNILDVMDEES

Compound	inhibition at 0.041 µM
C=CC(=O)Nc1cccc(-c2cccc3cnc(Nc4ccc(O[C@H]5CCOC5)cc4)nc23)c1 [Example C113, (S)-N-(3-(2-((4-((tetrahydrofuran-3-yl)oxy)phenyl)amino)quinazolin-8-yl)phenyl)acrylamide]	> 50%
C=CC(=O)Nc1cccc(-c2cccc3cnc(Nc4ccc(O[C@@H]5CCN(C)C5)cc4)nc23)c1 [Example C123, (R)-N-(3-(2-((4-((1-methylpyrrolidin-3-yl)oxy)phenyl)amino)quinazolin-8-yl)phenyl)acrylamide]	> 50%
C=CC(=O)Nc1cccc(-c2cccc3cnc(Nc4ccc(OC5CN(C(C)=O)C5)cc4)nc23)c1 [Example C122, N-(3-(2-((4-((1-acetylazetidin-3-yl)oxy)phenyl)amino)quinazolin-8-yl)phenyl)acrylamide]	> 50%
C=CC(=O)Nc1cccc(-c2cccc3cnc(Nc4ccc(N5CCNC(=O)C5)cc4)nc23)c1 [Example C117, N-(3-(2-((4-(3-oxopiperazin-1-yl)phenyl)amino)quinazolin-8-yl)phenyl)acrylamide]	> 50%
C=CC(=O)Nc1cccc(-c2cccc3cnc(Nc4ccc(NC5CN(C(C)=O)C5)cc4)nc23)c1 [Example C124, N-(3-(2-((4-((1-acetylazetidin-3-yl)amino)phenyl)amino)quinazolin-8-yl)phenyl)acrylamide]	> 50%
C=CC(=O)Nc1cccc(-c2cccc3cnc(Nc4ccc(O[C@@H]5CCOC5)cc4)nc23)c1 [Example C119, (R)-N-(3-(2-((4-((tetrahydrofuran-3-yl)oxy)phenyl)amino)quinazolin-8-yl)phenyl)acrylamide]	> 50%
Clc1ccccc1-c1cccc2cnc(Nc3ccc(N4CCNCC4)cc3)nc12 [Example C026, 8-(2-chlorophenyl)-N-(4-(piperazin-1-yl)phenyl)quinazolin-2-amine]	< 50%
C=CC(=O)Nc1cccc(-c2cccc3cnc(Nc4ccc(OCCN5CCC5)cc4)nc23)c1 [Example C109, N-(3-(2-((4-(2-(azetidin-1-yl)ethoxy)phenyl)amino)quinazolin-8-yl)phenyl)acrylamide]	> 50%
C=CC(=O)Nc1cccc(-c2cccc3cnc(Nc4ccc(OC5CCN(C(C)=O)CC5)cc4)nc23)c1 [Example C125, N-(3-(2-((4-((1-acetylpiperidin-4-yl)oxy)phenyl)amino)quinazolin-8-yl)phenyl)acrylamide]	> 50%
C=CC(=O)Nc1cccc(-c2cccc3cnc(Nc4ccc(OCCN(C)C)cc4)nc23)c1 [Example C110, N-(3-(2-((4-(2-(dimethylamino)ethoxy)phenyl)amino)quinazolin-8-yl)phenyl)acrylamide]	> 50%

The remaining lines, values ahead:

inhibition at 0.041 µM	Compound
> 50%	C=CC(=O)Nc1cccc(-c2cccc3cnc(Nc4ccc(N[C@@H]5CCOC5)cc4)nc23)c1 [Example C115, (R)-N-(3-(2-((4-((tetrahydrofuran-3-yl)amino)phenyl)amino)quinazolin-8-yl)phenyl)acrylamide]
> 50%	C=CC(=O)Nc1cccc(-c2cccc3cnc(Nc4ccc(NC5CCN(C)CC5)cc4)nc23)c1 [Example C118, N-(3-(2-((4-((1-methylpiperidin-4-yl)amino)phenyl)amino)quinazolin-8-yl)phenyl)acrylamide]
> 50%	C=CC(=O)Nc1cccc(-c2cccc3cnc(Nc4ccc(OC5CCN(C)CC5)cc4)nc23)c1 [Example C126, N-(3-(2-((4-((1-methylpiperidin-4-yl)oxy)phenyl)amino)quinazolin-8-yl)phenyl)acrylamide]
> 50%	C=CC(=O)Nc1cccc(-c2cccc3cnc(Nc4ccc(NC5CCN(C(C)=O)CC5)cc4)nc23)c1 [Example C120, N-(3-(2-((4-((1-acetylpiperidin-4-yl)amino)phenyl)amino)quinazolin-8-yl)phenyl)acrylamide]
